Key:
[1] = cited from earlier work
[2] = test system: U46619-induced platelet aggregation; settings: double blind, 10-day study, 20 healthy volunteers; plasma rich in platelets
Procedure: It was a double blind, 10-day duration study that was performed in 20 healthy volunteers with an age ranging from 26 to 40 years old. The platelet activation was measured by changes in light transmission of plasma rich in platelets stimulated by a synthetic analogue of TXA2, U46619.

platelet aggregation = settings: cited from earlier work
[3] = cited from earlier work; remark: listed apart in the source
[4] = radioactively marked Clopidogrel, within a five-day period

COC(=O)[C@H](c1ccccc1Cl)N1CCc2sccc2C1 [Clopidogrel]
reversibly bound to plasmatic proteins [1]: 98%
U46619 stimulated platelet aggregation [2]: significantly inhibited
time for platelet aggregation and bleeding-time to return to basal level (platelet aggregation; after the treatment discontinuation): five
platelet aggregation inhibited (platelet aggregation; in balanced conditions, 75 mg per day): 40-60%
activity in vitro (platelet aggregation; in vitro, requires hepatic activation): inactive in vitro
time to maximum inhibition of platelet aggregation (platelet aggregation; iterative doses of 75 mg per day): 3 to 7 days
inhibition of platelet aggregation (platelet aggregation; two hours after a single oral dose): already observed an inhibition of platelet aggregation
time to maximum plasmatic concentrations of primary metabolite ([3]; after a dose of 75 mg): one
plasmatic half-life ([3]; in vivo): about 8 hours
inactive primary metabolite (carboxylic acid) as share of metabolites circulating in the plasma ([3]; oral): about 85%
absorption ([3]; oral, not significantly affected by food): 50%
eliminated through feces [3, 4]: 46%
eliminated through urine [3, 4]: About 50%
plasmatic concentrations of the unaltered drug ([3]; two hours after an oral dose): no longer detectable

— patent publication EP1992346A1, “PHARMACEUTICAL COMPOSITIONS CONTAINING COMBINED PLATELET AGGREGATION INHIBITING SUBSTANCES FOR USE IN THE TREATMENT AND PREVENTION OF ISCHEMIC VASCULAR EVENTS” (WORLD-TRADE IMPORT-EXPORT, WTIE, A.G., priority 2005, dated 2007)
